KDeff data for 1 compound are collected here from paper PMC6838323 (2019).

Experiment in all cases: fluorescence (Cy3/DABCYL) titration, two-site fit
Holding throughout (settings): 6 mM Mg2+; 10 mM Tris-HCl pH 7.5, 25 °C; 250 nM aptamer; apparent; ATP up to 6.75 mM

In assay [1] the test system is 6_36 (DNA, aptamer) CACCTGGGGGAGTATTGCGGAGGAAGGTTTTTTTTTTTTTTTCAGGTG
In assay [2] the test system is 7_36 (DNA, aptamer) CACCTGGGGGAGTATTGCGGAGGAAGGTTTTTTTTTTTTTTTTCCAGGTG
Assay [3] has as its system 8_33 (DNA, aptamer) CACCTGGGGGAGTATTGCGGAGGAAGGTTTTTTTTTTTTTTCCCAGGTG
Assay [4] has as its system 9_43 (DNA, aptamer) CACCTGGGGGAGTATTGCGGAGGAAGGTTTTTTTTTTTTTTTTTTTTTTTTTCCCCAGGTG
Assay [5] relates to 6_25 (DNA, aptamer) CACCTGGGGGAGTATTGCGGAGGAAGGTTTTCAGGTG
Assay [6] relates to 8_23 (DNA, aptamer) CACCTGGGGGAGTATTGCGGAGGAAGGTTTTCCCAGGTG
In assay [7] the test system is 6_23 (DNA, aptamer) CACCTGGGGGAGTATTGCGGAGGAAGGTTCAGGTG
Assay [8] deals with 8_43 (DNA, aptamer) CACCTGGGGGAGTATTGCGGAGGAAGGTTTTTTTTTTTTTTTTTTTTTTTTCCCAGGTG
Assay [9] concerns 9_36 (DNA, aptamer) CACCTGGGGGAGTATTGCGGAGGAAGGTTTTTTTTTTTTTTTTTTCCCCAGGTG
Assay [10] concerns 7_43 (DNA, aptamer) CACCTGGGGGAGTATTGCGGAGGAAGGTTTTTTTTTTTTTTTTTTTTTTTCCAGGTG
The subject of assay [11] is 8_36 (DNA, aptamer) CACCTGGGGGAGTATTGCGGAGGAAGGTTTTTTTTTTTTTTTTTCCCAGGTG
For assay [12], the system named is 9_25 (DNA, aptamer) CACCTGGGGGAGTATTGCGGAGGAAGGTTTTTTTCCCCAGGTG
Assay [13] deals with 7_33 (DNA, aptamer) CACCTGGGGGAGTATTGCGGAGGAAGGTTTTTTTTTTTTTCCAGGTG
Assay [14] deals with 9_33 (DNA, aptamer) CACCTGGGGGAGTATTGCGGAGGAAGGTTTTTTTTTTTTTTTCCCCAGGTG
Assay [15] deals with 7_23 (DNA, aptamer) CACCTGGGGGAGTATTGCGGAGGAAGGTTTCCAGGTG
Assay [16] has as its system 7_25 (DNA, aptamer) CACCTGGGGGAGTATTGCGGAGGAAGGTTTTTCCAGGTG
The test system of assay [17] is 8_25 (DNA, aptamer) CACCTGGGGGAGTATTGCGGAGGAAGGTTTTTTCCCAGGTG
In assay [18] the test system is 9_23 (DNA, aptamer) CACCTGGGGGAGTATTGCGGAGGAAGGTTTTTCCCCAGGTG
Assay [19] deals with 6_33 (DNA, aptamer) CACCTGGGGGAGTATTGCGGAGGAAGGTTTTTTTTTTTTCAGGTG

For the compound `Nc1ncnc2c1ncn2[C@@H]1O[C@H](COP(=O)(O)OP(=O)(O)OP(=O)(O)O)[C@@H](O)[C@H]1O`, the KDeff came out at 0.0107 ± 0.0019 mM in assay [1]; 0.0709 ± 0.0018 mM in assay [2]; 0.734 ± 0.01 mM in assay [3]; 0.967 ± 0.085 mM in assay [4]; 0.0262 ± 0.0095 mM in assay [5]; 3.58 ± 1.37 mM in [6]. Further, the KDeff was 0.0314 ± 0.0111 mM in assay [7]; 0.388 ± 0.124 mM in [8]; 2.72 ± 1.47 mM in assay [9]; 0.0298 ± 0.0031 mM in [10]; 0.352 ± 0.043 mM in assay [11]; 12.8 ± 1.7 mM in [12]. For the same compound, the KDeff stood at 0.0985 ± 0.0481 mM in [13]; 4.98 ± 0.53 mM in [14]; 0.382 ± 0.034 mM in assay [15]; 0.271 ± 0.038 mM in [16]; 2.29 ± 0.05 mM in assay [17]; 39.0 ± 35.7 mM in assay [18]. Besides, in assay [19], the KDeff is 0.0182 ± 0.0076 mM.
